Data from patent publication US20080009418A1, “Selective Inhibitors” (Alchemia LTD., priority 2004, published 2008).

Assays:
Human opioid (ORL1) = biological target: T1, Human opioid (ORL1) (Homo sapiens, UniProt P41146); experiment: Radioligand binding, human opioid ORL1 membranes, FlashPlate, [125I]-Nociceptin; conditions: compound at 10 μM; [125I]-Nociceptin
T1 construct: purchased Perkin Elmer Biosignal
Method in brief: (§1)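 Cloned human receptor membranes were coated onto FlashPlate wells and incubated with radioligand and compound (added from a 0.5 mM DMSO daughter plate) for 1 hour at room temperature in the dark. Scintillation counting gave percent inhibition, with DMSO defining total and reference ligand defining non-specific binding.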

Human δ-opioid (DOP) = biological target: T2, Human δ-opioid (DOP) (Homo sapiens, UniProt P41143); experiment: Radioligand binding, human δ-opioid (DOP) membranes, FlashPlate, [3H]-Bremazocine; conditions: compound at 10 μM; [3H]-Bremazocine
T2 construct: purchased Perkin Elmer Biosignal
T2 sequence (P41143 whole entry): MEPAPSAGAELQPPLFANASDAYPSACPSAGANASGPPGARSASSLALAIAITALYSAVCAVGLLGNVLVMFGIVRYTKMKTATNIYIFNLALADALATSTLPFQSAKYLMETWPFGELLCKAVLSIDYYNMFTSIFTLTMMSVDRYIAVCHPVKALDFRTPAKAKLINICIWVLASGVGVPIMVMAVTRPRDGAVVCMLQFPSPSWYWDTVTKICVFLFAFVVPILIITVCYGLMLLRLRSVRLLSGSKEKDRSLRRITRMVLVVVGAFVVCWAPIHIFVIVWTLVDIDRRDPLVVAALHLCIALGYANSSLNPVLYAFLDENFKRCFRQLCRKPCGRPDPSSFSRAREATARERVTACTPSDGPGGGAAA
Method in brief: as §1

Mouse urotensin (mUR2) = biological target: T3, Mouse urotensin (mUR2) (Mus musculus, UniProt Q8VIH9); experiment: Radioligand binding, mouse urotensin mUR2 membranes, FlashPlate, [125I]-Urotensin II; conditions: compound at 10 μM; [125I]-Urotensin II
T3 construct: purchased Perkin Elmer Biosignal
T3 sequence (Q8VIH9 1-385): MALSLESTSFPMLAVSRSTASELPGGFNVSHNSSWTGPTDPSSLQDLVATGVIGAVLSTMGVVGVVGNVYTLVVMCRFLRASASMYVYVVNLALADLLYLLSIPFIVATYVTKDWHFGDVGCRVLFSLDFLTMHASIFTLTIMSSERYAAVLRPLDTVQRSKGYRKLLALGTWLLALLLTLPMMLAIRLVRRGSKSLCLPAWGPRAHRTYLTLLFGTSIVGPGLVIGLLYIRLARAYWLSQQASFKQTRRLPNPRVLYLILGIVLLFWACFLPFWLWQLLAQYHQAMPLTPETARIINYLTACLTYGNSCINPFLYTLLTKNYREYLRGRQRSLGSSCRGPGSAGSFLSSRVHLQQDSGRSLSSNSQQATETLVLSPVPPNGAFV
Method in brief: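 Cloned mouse urotensin (mUR2) receptor membranes from Perkin Elmer Biosignal were immobilized in FlashPlate microplates using a proprietary coating. Each well got 19.5 μl buffer, then 0.5 μl of DMSO, reference ligand, or compound. Adding 5 μl of [125I]-Urotensin II, diluted to 5× final concentration in binding buffer, started binding. Plates were sealed with TopSeal-A and incubated 1 hour at room temperature in the dark. Wells were counted for 30 seconds each on a TopCount after a 60-second delay, and percentage inhibition was calculated.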

Human κ-Opioid (KOP) = biological target: T4, Human κ-Opioid (KOP) (Homo sapiens, UniProt P41145); experiment: Radioligand binding, human κ-opioid (KOP) membranes, filtration, [3H]-Diprenorphine; conditions: compound at 10 μM; [3H]-Diprenorphine
T4 construct: purchased Perkin Elmer Biosignal
T4 sequence (P41145 whole entry): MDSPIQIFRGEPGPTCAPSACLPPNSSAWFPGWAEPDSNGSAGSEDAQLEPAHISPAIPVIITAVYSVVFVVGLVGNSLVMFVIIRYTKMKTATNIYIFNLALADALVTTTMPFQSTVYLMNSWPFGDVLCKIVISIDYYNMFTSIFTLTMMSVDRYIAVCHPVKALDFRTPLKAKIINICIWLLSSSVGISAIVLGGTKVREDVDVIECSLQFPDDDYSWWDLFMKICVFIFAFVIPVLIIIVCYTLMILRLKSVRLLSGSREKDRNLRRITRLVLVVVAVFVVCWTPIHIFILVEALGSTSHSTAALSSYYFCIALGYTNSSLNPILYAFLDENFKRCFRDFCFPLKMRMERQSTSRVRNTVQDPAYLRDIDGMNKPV
Method in brief: (§2)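 Filtration binding on cloned human receptor membranes (1 Unit/well), [125I]-Substance P for NK1 and [3H]-Diprenorphine for KOP, 1 h at room temperature. Filters PEI-presoaked, washed with cold 50 mM Tris-HCl pH 7.4, counted by scintillation; percent inhibition calculated, reference ligand defining non-specific binding.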

[1] = biological target: T5, Human melanin-concentrating hormone (MCH1) (Homo sapiens, UniProt Q99705); experiment: Radioligand binding, human melanin-concentrating hormone MCH1 membranes, FlashPlate, [125I]-S36057; conditions: compound at 10 μM; [125I]-S36057
T5 construct: purchased Perkin Elmer Biosignal
T5 sequence (Q99705 whole entry): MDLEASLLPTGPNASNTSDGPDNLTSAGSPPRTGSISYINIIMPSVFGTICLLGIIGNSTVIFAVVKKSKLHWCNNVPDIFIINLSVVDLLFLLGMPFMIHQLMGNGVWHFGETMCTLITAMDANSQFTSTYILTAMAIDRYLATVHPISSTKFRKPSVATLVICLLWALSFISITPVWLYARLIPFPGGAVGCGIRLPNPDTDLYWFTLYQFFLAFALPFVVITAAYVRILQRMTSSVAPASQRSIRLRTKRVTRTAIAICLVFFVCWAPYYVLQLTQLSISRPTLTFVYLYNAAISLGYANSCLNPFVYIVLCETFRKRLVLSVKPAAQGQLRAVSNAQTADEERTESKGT
Method in brief: as §1

Human Melanocortin (MC3) = biological target: T6, Human Melanocortin (MC3) (Homo sapiens, UniProt P41968); experiment: Radioligand binding, human melanocortin MC3 membranes, FlashPlate, [125I]-NDP-αMSH; conditions: compound at 10 μM; [125I]-NDP-αMSH
T6 construct: purchased Perkin Elmer Biosignal
T6 sequence (P41968 whole entry): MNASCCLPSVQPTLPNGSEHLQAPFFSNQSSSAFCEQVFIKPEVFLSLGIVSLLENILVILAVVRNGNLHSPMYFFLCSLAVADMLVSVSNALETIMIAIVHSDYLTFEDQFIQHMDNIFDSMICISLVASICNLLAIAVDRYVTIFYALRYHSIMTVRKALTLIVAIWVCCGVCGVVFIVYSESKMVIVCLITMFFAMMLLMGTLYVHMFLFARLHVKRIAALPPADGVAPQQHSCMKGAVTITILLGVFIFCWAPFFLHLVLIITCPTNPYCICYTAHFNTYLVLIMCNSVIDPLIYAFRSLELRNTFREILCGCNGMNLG
Method in brief: as §1

Human μ-opioid (MOP) = biological target: T7, Human μ-opioid (MOP) (Homo sapiens, UniProt P35372); experiment: Radioligand binding, human μ-opioid (MOP) membranes, FlashPlate, [3H]-Naloxone; conditions: compound at 10 μM; [3H]-Naloxone
T7 construct: purchased Perkin Elmer Biosignal
T7 sequence (P35372 whole entry): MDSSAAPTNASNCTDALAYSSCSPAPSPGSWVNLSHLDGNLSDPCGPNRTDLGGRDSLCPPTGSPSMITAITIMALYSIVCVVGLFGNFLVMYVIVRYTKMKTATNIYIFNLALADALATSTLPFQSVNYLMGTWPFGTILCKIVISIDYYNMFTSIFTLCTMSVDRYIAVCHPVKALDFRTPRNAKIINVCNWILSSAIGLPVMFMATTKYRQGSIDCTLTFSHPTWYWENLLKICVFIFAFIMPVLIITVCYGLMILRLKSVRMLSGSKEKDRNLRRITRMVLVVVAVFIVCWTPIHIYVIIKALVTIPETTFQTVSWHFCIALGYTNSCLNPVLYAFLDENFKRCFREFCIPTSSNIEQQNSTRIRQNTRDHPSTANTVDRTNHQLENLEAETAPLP
Method in brief: as §1

Human melanocortin (MC5) = biological target: T8, Human melanocortin (MC5) (Homo sapiens, UniProt P33032); experiment: Radioligand binding, human melanocortin MC5 membranes, FlashPlate, [125I]-NDP-αMSH; conditions: compound at 10 μM; [125I]-NDP-αMSH
T8 construct: purchased Perkin Elmer Biosignal
T8 sequence (P33032 whole entry): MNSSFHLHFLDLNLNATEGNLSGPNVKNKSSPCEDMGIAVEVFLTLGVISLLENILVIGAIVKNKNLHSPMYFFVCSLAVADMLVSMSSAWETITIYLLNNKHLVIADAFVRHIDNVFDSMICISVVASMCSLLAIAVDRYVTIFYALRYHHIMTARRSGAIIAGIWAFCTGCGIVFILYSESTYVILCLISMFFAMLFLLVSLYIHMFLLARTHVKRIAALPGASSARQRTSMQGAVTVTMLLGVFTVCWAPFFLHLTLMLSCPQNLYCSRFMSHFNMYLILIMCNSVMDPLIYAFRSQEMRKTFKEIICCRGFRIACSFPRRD
Method in brief: as §1

Human Melanocortin (MC4) = biological target: T9, Human Melanocortin (MC4) (Homo sapiens, UniProt P32245); experiment: Radioligand binding, human melanocortin MC4 membranes, FlashPlate, [125I]-NDP-αMSH; conditions: compound at 10 μM; [125I]-NDP-αMSH
T9 construct: purchased Perkin Elmer Biosignal
T9 sequence (P32245 whole entry): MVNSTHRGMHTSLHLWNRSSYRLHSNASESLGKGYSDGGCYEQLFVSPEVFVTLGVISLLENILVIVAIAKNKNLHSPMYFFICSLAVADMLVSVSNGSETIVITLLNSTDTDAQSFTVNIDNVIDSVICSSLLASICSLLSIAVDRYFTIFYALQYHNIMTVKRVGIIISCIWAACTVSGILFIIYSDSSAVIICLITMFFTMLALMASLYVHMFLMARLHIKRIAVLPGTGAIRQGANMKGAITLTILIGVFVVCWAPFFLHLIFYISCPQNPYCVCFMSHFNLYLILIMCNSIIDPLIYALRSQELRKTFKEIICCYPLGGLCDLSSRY
Method in brief: as §1

[2] = biological target: T10, Human neuropeptide Y (NPY-Y1) (Homo sapiens, UniProt P25929); experiment: Radioligand binding, human neuropeptide Y NPY-Y1 membranes, FlashPlate, [125I]-PYY; conditions: compound at 10 μM; [125I]-PYY
T10 construct: purchased Perkin Elmer Biosignal
T10 sequence (P25929 1-384): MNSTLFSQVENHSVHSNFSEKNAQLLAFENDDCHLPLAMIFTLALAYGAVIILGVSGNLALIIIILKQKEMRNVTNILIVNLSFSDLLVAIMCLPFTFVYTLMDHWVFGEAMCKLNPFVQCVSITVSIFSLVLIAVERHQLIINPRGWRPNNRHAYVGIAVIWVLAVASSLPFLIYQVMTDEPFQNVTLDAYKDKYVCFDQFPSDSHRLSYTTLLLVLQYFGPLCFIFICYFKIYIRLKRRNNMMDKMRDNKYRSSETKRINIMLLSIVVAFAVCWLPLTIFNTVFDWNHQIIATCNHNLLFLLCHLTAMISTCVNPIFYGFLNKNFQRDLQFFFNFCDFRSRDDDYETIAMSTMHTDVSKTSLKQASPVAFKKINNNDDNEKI
Method in brief: as §1

Human neurokinin (NK1) = biological target: T11, Human neurokinin (NK1) (Homo sapiens, UniProt P25103); experiment: Radioligand binding, human neurokinin NK1 membranes, filtration, [125I]-Substance P; conditions: compound at 10 μM; [125I]-Substance P
T11 construct: purchased Perkin Elmer Biosignal
T11 sequence (P25103 whole entry): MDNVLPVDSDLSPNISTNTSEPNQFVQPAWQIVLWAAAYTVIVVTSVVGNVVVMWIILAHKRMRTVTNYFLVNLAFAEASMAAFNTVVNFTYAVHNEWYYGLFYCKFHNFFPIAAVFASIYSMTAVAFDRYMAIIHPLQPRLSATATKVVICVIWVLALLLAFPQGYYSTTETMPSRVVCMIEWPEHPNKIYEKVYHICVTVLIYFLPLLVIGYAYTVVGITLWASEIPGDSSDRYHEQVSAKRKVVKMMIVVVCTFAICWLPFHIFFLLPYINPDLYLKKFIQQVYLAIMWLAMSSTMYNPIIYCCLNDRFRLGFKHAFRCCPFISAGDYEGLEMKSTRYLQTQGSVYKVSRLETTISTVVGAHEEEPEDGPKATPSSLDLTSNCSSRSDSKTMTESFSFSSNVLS
Method in brief: as §2

T1 sequence (P41146 whole entry): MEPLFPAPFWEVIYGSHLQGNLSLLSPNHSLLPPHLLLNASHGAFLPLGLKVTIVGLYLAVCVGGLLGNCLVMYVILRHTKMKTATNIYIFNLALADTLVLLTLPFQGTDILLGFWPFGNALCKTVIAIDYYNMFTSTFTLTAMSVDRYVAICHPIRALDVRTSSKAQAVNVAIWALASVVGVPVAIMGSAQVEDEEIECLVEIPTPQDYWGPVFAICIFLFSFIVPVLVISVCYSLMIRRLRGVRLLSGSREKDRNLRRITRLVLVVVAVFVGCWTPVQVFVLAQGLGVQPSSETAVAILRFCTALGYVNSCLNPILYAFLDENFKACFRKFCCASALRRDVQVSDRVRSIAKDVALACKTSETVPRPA

| SMILES | A10 radioligand binding, percentage inhibition (Human opioid (ORL1)) | A1 radioligand binding, percentage inhibition (Human δ-opioid (DOP)) | A11 radioligand binding, percentage inhibition (Mouse urotensin (mUR2)) | A2 radioligand binding, percentage inhibition (Human κ-Opioid (KOP)) | A6 radioligand binding, percentage inhibition [1] | A3 radioligand binding, percentage inhibition (Human Melanocortin (MC3)) | A7 radioligand binding, percentage inhibition (Human μ-opioid (MOP)) | A5 radioligand binding, percentage inhibition (Human melanocortin (MC5)) | A4 radioligand binding, percentage inhibition (Human Melanocortin (MC4)) | A9 radioligand binding, percentage inhibition [2] | A8 radioligand binding, percentage inhibition (Human neurokinin (NK1)) |
| --- | --- | --- | --- | --- | --- | --- | --- | --- | --- | --- | --- |
| CO[C@H]1[C@H](O)[C@@H](COCc2ccc3ccccc3c2)OC(OCCc2ccccc2)[C@@H]1NC(=O)CCCN (stereo partly shown) [compound 115] | − (“−” indicates less than 50% inhibition at 10 μM) | − (“−” indicates less than 50% inhibition at 10 μM) | − (“−” indicates less than 50% inhibition at 10 μM) | − (“−” indicates less than 50% inhibition at 10 μM) | − (“−” indicates less than 50% inhibition at 10 μM) | − (“−” indicates less than 50% inhibition at 10 μM) | − (“−” indicates less than 50% inhibition at 10 μM) | − (“−” indicates less than 50% inhibition at 10 μM) | − (“−” indicates less than 50% inhibition at 10 μM) | − (“−” indicates less than 50% inhibition at 10 μM) | + (“+” indicates greater than 50% inhibition at 10 μM) |
| CO[C@H]1[C@H](O)[C@@H](COCc2ccc3ccccc3c2)OC(OCCc2ccccc2)[C@@H]1NC(=O)CCCNC(=N)N (stereo partly shown) [compound 116] | − (“−” indicates less than 50% inhibition at 10 μM) | − (“−” indicates less than 50% inhibition at 10 μM) | − (“−” indicates less than 50% inhibition at 10 μM) | − (“−” indicates less than 50% inhibition at 10 μM) | − (“−” indicates less than 50% inhibition at 10 μM) | − (“−” indicates less than 50% inhibition at 10 μM) | − (“−” indicates less than 50% inhibition at 10 μM) | + (“+” indicates greater than 50% inhibition at 10 μM) | − (“−” indicates less than 50% inhibition at 10 μM) | − (“−” indicates less than 50% inhibition at 10 μM) | + (“+” indicates greater than 50% inhibition at 10 μM) |
| CO[C@H]1[C@H](O)[C@@H](COCc2ccccc2)OC(OCCc2ccccc2)[C@@H]1NC(=O)CCNC(=N)N (stereo partly shown) [compound 117] | − (“−” indicates less than 50% inhibition at 10 μM) | − (“−” indicates less than 50% inhibition at 10 μM) | − (“−” indicates less than 50% inhibition at 10 μM) | + (“+” indicates greater than 50% inhibition at 10 μM) | − (“−” indicates less than 50% inhibition at 10 μM) | − (“−” indicates less than 50% inhibition at 10 μM) | − (“−” indicates less than 50% inhibition at 10 μM) | − (“−” indicates less than 50% inhibition at 10 μM) | − (“−” indicates less than 50% inhibition at 10 μM) | − (“−” indicates less than 50% inhibition at 10 μM) | + (“+” indicates greater than 50% inhibition at 10 μM) |
| CO[C@H]1[C@H](O)[C@@H](COCc2ccccc2)OC(OCCc2ccccc2)[C@@H]1NC(=O)CCCNC(=N)N (stereo partly shown) [compound 118] | − (“−” indicates less than 50% inhibition at 10 μM) | − (“−” indicates less than 50% inhibition at 10 μM) | − (“−” indicates less than 50% inhibition at 10 μM) | − (“−” indicates less than 50% inhibition at 10 μM) | − (“−” indicates less than 50% inhibition at 10 μM) | − (“−” indicates less than 50% inhibition at 10 μM) | − (“−” indicates less than 50% inhibition at 10 μM) | − (“−” indicates less than 50% inhibition at 10 μM) | − (“−” indicates less than 50% inhibition at 10 μM) | − (“−” indicates less than 50% inhibition at 10 μM) | + (“+” indicates greater than 50% inhibition at 10 μM) |
| CO[C@H]1[C@H](O)[C@@H](COCc2ccc(Cl)cc2)OC(OCCc2ccccc2)[C@@H]1NC(=O)CNC(=N)N (stereo partly shown) [compound 119] | − (“−” indicates less than 50% inhibition at 10 μM) | − (“−” indicates less than 50% inhibition at 10 μM) | − (“−” indicates less than 50% inhibition at 10 μM) | − (“−” indicates less than 50% inhibition at 10 μM) | − (“−” indicates less than 50% inhibition at 10 μM) | − (“−” indicates less than 50% inhibition at 10 μM) | − (“−” indicates less than 50% inhibition at 10 μM) | − (“−” indicates less than 50% inhibition at 10 μM) | − (“−” indicates less than 50% inhibition at 10 μM) | − (“−” indicates less than 50% inhibition at 10 μM) | + (“+” indicates greater than 50% inhibition at 10 μM) |
